# Measured values reported in patent US20200165194A1, “ADDITIVE COMPOSITION FOR CULTURE MEDIUM, ADDITIVE COMPOUND FOR CULTURE MEDIUM, AND METHOD FOR CULTURE OF CELLS OR TISSUE USING SAME” (NISSAN CHEMICAL CORPORATION, priority 2017, published 2020).
# Like-named read-outs stand apart in the source and are kept apart here.
# Tests used:
# [1] = test system: a plurality of cancer cell lines; test: Various human cancer cells-2, summary over the cell lines (Experimental Example 6); assay type: cell-based; details: cancer cell lines under three-dimensional conditions
# Description: Various human-derived cancer cells were precultured (single layer culture) in respective media shown below. […] The above-mentioned cells in the logarithmic growth phase were washed with PBS, a 0.25 w/v % trypsin-1 mmol/L EDTA (ethylenediaminetetraacetic acid) solution (manufactured by Wako Pure Chemical Industries, Ltd.) was added, and adherent cells were detached by incubating at 37° C. for 1-5 min. Each medium was added and the mixture was centrifuged. After resuspension in the same medium, each cell was recovered.
# (§1) The aforementioned various cells were suspended in respective deacylated gellan gum-containing or not containing media (deacylated gellan gum concentration was 0.015 w/v %), and seeded in a 96 well low attachment U-bottom plate (manufactured by Corning, #4520, deacylated gellan gum-free medium), or a low attachment flat bottom plate (manufactured by Corning, #3474, deacylated gellan gum-containing medium) at a cell concentration of 700-12000 cells/90 μL/well (all 3D culture). […] The amount of each compound solution to be added was 10 μL/well. As a control, a DMSO solution dissolved in a medium was added (DMSO final concentration 0.1%). […] When compared with the compound no-addition (control), one showing a value of not more than 119% as -, one showing a value of not less than 120% as ◯, and one showing a value of not less than 150% as ⊚ are shown in the eleventh table and the twelfth table. Unperformed test is left blank.
# [2] = test system: Mouse embryonic fibroblast C3H10T1/2; test: Fibroblast strain C3H10T1/2, 3D culture, ATP assay (Experimental Example 11); assay type: cell-based; details: for proliferation activity (in words): fibroblast under three-dimensional conditions
# Description: Mouse embryonic fibroblast C3H10T1/2 (manufactured by DS PHARMA BIO MEDICAL) was cultured in a BME medium (manufactured by Thermo Fisher Scientific) containing 10 (v/v) % FBS (manufactured by Corning) and the L-glutamine-penicillin-streptomycin stabilizing solution (manufactured by Sigma-Aldrich). The above-mentioned cells in the logarithmic growth phase were washed with PBS, a 0.25 w/v % trypsin-1 mmol/L EDTA (ethylenediaminetetraacetic acid) solution (manufactured by Wako Pure Chemical Industries, Ltd.) was added, and the cells were detached by incubating at 37° C. for 3 min. Each medium was added, the mixture was centrifuged, and the supernatant was removed.
# as §1, with “gum-free” for “gum-free medium), or a low attachment flat bottom plate (manufactured by Corning, #3474, deacylated gellan gum-containing”, “700-2000” for “700-12000”, “(3D” for “(all 3D”, “eighteenth” for “eleventh table and the twelfth”
# [3] = test system: Cercopithecus aethiops kidney epithelium-derived cell line Vero; test: Animal cell lines, 3D culture, ATP assay (Experimental Example 15); assay type: cell-based; details: 4 days
# Text: (§2) Various animal cell lines were precultured (single layer culture) as follows in respective media. Chinese hamster ovary-derived cell line CHO-K1 (manufactured by DS PHARMA BIO MEDICAL, 10% fetal bovine serum (FBS, manufactured by Corning)-containing Ham's F-12 medium (manufactured by Fujifilm Wako Pure Chemical Corporation)), Cercopithecus aethiops kidney epithelium-derived cell line Vero (purchased from JCRB cell bank, 5% FBS-containing Medium 199 medium (manufactured by Life Technologies)). The above-mentioned cells in the logarithmic growth phase were washed with PBS, a 0.25 w/v % trypsin-1 mmol/L EDTA (ethylenediaminetetraacetic acid) solution (manufactured by Fujifilm Wako Pure Chemical Corporation) was added, and adherent cells were detached by incubating at 37° C. for 3 min. Each medium was added and the mixture was centrifuged and resuspended in the same medium.
# (§3) The aforementioned various animal cells were suspended in respective deacylated gellan gum-containing or not containing media (deacylated gellan gum concentration was 0.02 w/v % in Ham's F-12 medium, 0.015 w/v % in Medium 199 medium), and seeded in a 96 well low attachment U-bottom plate (manufactured by Corning, #4520, deacylated gellan gum-free medium), or a low attachment flat bottom plate (manufactured by Corning, #3474, deacylated gellan gum-containing medium) at a cell concentration of 700-2000 cells/90 μL/well (all 3D culture). […] The amount of each compound solution to be added was […]. As a control, a DMSO solution dissolved in a medium was added (DMSO final concentration 0.1%). […] When compared with the compound non-addition (control), one showing a value of not more than 119% as -, one showing a value of not less than 120% as ◯, and one showing a value of not less than 150% as ⊚ are shown in the twenty-third table and the twenty-fourth table.
# [4] = test system: Chinese hamster ovary-derived cell line CHO-K1; test: as above; assay type: cell-based; details: CHO-K1, 4 days; for viability at 5 µM / viability at 10 µM: Cricetulus griseus, CHO-K1, 96 h, read-out: number of viable cells (RLU), relative value to control (100%)
# Text: as §2, §3
# [5] = test system: plural animal cell lines; test: Animal cell lines, summary over the cell lines (Experimental Example 15); assay type: cell-based; details: animal cell lines under three-dimensional conditions
# Text: as §2, §3
# [6] = test system: human ovarian cancer cell line SKOV3; test: Action on SKOV3 cell-2: 3D (deacylated gellan gum) and 2D culture, EGF medium, ATP assay (Experimental Example 3); details: for viability at 1 µM / viability at 5 µM / viability at 10 µM / viability at 20 µM: Homo sapiens, SK-OV-3, 96 h, 4 days, compound non-addition = 100%
# Description: According to the method of patent document 1 (WO 2014/017513), a composition of McCoy's 5a medium (manufactured by Sigma-Aldrich) containing 0.015% (w/v) deacylated gellan gum (KELCOGEL CG-LA, manufactured by Sansho Co., Ltd.) and 15% (v/v) FBS, 30 ng/mL human EGF (manufactured by PEPROTECH) was prepared using FCeM-series Preparation Kit (manufactured by Wako Pure Chemical Industries, Ltd.). In a single layer culture, a non-addition medium composition not containing deacylated gellan gum was prepared. Then, human ovarian cancer cell line SKOV3 (manufactured by DS PHARMA BIO MEDICAL) was suspended in the above-mentioned medium composition added with deacylated gellan gum, and dispensed into the wells of a 384 well flat bottom Ultr-low Attachment surface microplate (manufactured by Corning Incorporated, #3827) at 1000 cells/36 μL/well (three-dimensional culture (3D)). In a single layer culture (2D), human ovarian cancer cell line SKOV3 was suspended in the above-mentioned medium composition not containing deacylated gellan gum, and dispensed into the wells of a 384 well flat bottom microplate (manufactured by Corning Incorporated, #3712) at 400 cells/36 μL per well. After dispensing, the compound to be used in the present invention dissolved in dimethyl sulfoxide (DMSO) was added by 4 μL each at a final concentration of 0, 1, 5, 10, 20 μM, and continuously cultured for 4 days. Each plate was cultured in a standing state in a CO2 incubator (37° C., 5% CO2) for 4 days. An ATP reagent (40 μL) (CellTiter-Glo (registered trade mark) Luminescent Cell Viability Assay, manufactured by Promega) was added to the culture medium on day 4, and the mixture was stirred by a plateshaker (manufactured by AS ONE Corporation, Micro plate mixer NS-P) at room temperature for 15 min. The luminescence intensity (RLU value) was measured by EnSpire (manufactured by Perkin Elmer) and the luminescence value of the medium alone was subtracted to measure the number of viable cells.
# [7] = low attachment U-bottom plate, 5 μM
# [8] = low attachment U-bottom plate, 10 μM
# [9] = low attachment flat bottom plate (deacylated gellan gum-containing medium), 5 μM
# [10] = low attachment flat bottom plate (deacylated gellan gum-containing medium), 10 μM
# [11] = read-out: relative value of RLU (number of viable cells), 2D single layer culture
# [12] = read-out: relative value of RLU (number of viable cells), 3D culture (deacylated gellan gum)
# [13] = single layer culture (2D) of SKOV3 cells
# [14] = three-dimensional culture (3D) of SKOV3 cells
SMILES,proliferation activity (in words) [1],proliferation activity (in words) [2],"number of viable cells (RLU), relative value to control (100%) [3, 7]","number of viable cells (RLU), relative value to control (100%) [3, 8]","number of viable cells (RLU), relative value to control (100%) [3, 9]","number of viable cells (RLU), relative value to control (100%) [3, 10]","viability at 5 µM [4, 7] [%]","viability at 10 µM [4, 8] [%]",proliferation activity (in words) [5],"viability at 1 µM [6, 11] [%]","viability at 5 µM [6, 11] [%]","viability at 10 µM [6, 11] [%]","viability at 20 µM [6, 11] [%]","viability at 1 µM [6, 12] [%]","viability at 5 µM [6, 12] [%]","viability at 10 µM [6, 12] [%]","viability at 20 µM [6, 12] [%]","cell proliferation promoting effect (in words) [6, 13]","cell proliferation promoting effect (in words) [6, 14]","number of viable cells (RLU), relative value to control (100%) [4, 9]",other results
CC/C(=N\NC(=O)C(C)Nc1ccccc1)c1ccc(O)c(C)c1O (stereo not drawn) [k-1:B-1],promoted proliferation activity in a plurality of cancer cell lines,promoted proliferation activity in fibroblast,⊙,⊙,⊙,⊙,< 119,< 119,promoted proliferation activity in plural animal cell lines,95,99,97,74,127,181,177,158,a favorable cell proliferation promoting effect was not observed,exhibited cell proliferation promoting effect at a wide concentration range,,"number of viable cells (RLU), relative value to control (100%) ([2]; C3H10T1/2, low attachment U-bottom plate, 1 μM, 4 days): ⊙; number of viable cells (RLU), relative value to control (100%) ([2]; C3H10T1/2, low attachment U-bottom plate, 5 μM, 4 days): ⊙; viability at 5 µM [4, 9]: 120 to 150%; viability at 10 µM [4, 10]: < 119%"
CC/C(=N\NC(=O)CNc1cccc(O)c1)c1ccc(O)c(C)c1O [k-1:D-1],promoted proliferation activity in a plurality of cancer cell lines,promoted proliferation activity in fibroblast,⊙,⊙,⊙,⊙,< 119,< 119,promoted proliferation activity in plural animal cell lines,95,102,98,83,140,174,168,136,a favorable cell proliferation promoting effect was not observed,exhibited cell proliferation promoting effect at a wide concentration range,⊙,"viability at 1 µM ([2]; Mus musculus, C3H 10T1/2, 96 h, C3H10T1/2, low attachment U-bottom plate, 1 μM, 4 days, read-out: number of viable cells (RLU), relative value to control (100%)): > 120%; number of viable cells (RLU), relative value to control (100%) [4, 10]: ⊙"
CCC(=NNC(=O)C(CC)Nc1ccccc1)c1ccc(O)c(C)c1O (stereo not drawn) [k-1:H-7],,,⊙,⊙,⊙,⊙,,,promoted proliferation activity in plural animal cell lines,,,,,,,,,,,◯ (one showing a value of not less than 120% as ◯),
